We go through two compounds from patent US20260139222A1, “SYSTEMS WITH BIO-ENGINEERED ADHESIVE SILOXANE SUBSTRATE OF TUNABLE STIFFNESS AND METHODS OF USE THEREOF” (NUTECH VENTURES, priority 2022, published 2026).

In assay [1] the test system is HMC3 microglia. As to the kind of experiment: Microglial proliferation and growth on stiffness after NAC pretreatment. The format is cell-based, human. Here is the method:
Cell Count and Growth Analysis: Microglia were seeded in triplicate (7.5×10^5 cells/well) in a 12-well plate and the growth of cells was counted every other day, after which the stiffer matrices reached 100% confluency. At 48 h intervals, cells were trypsinized and counted using trypan blue exclusion tests. The doubling time of each stiffness was calculated with the following formula: […], where C_start is the number of cells at the beginning (day 0), C_end is the number of cells after a period of time t and T is the doubling time. NAC administration in microglial cells: NAC was purchased (Sigma-Aldrich, St. Louis, MO, USA) and was used in treatment after seeding microglial cells for 3 hours with a 2×PBS wash, then replaced with microglia media every 72 hours. Concentrations of 0.25 and 2.5 mM were used 36. Microglia were grown for 11 days and then assessed using qRT-PCR, counting, and luminescent assays.

Assay [2] relates to HMC3 microglia. As to the kind of experiment: qRT-PCR gene expression in microglia with and without NAC pretreatment. It counts as cell-based, human. How it is done:
NAC administration in microglial cells: NAC was purchased (Sigma-Aldrich, St. Louis, MO, USA) and was used in treatment after seeding microglial cells for 3 hours with a 2×PBS wash, then replaced with microglia media every 72 hours. Concentrations of 0.25 and 2.5 mM were used 36. Microglia were grown for 11 days and then assessed using qRT-PCR, counting, and luminescent assays. Gene Expression by Quantitative RT-PCR (qRT-PCR): Total RNA expression was extracted from microglial cells using TRIzol reagent (Invitrogen, CA, USA) and RNA samples were quantified by Take3 Micro-Volume Plate reader (BioTek, VT, USA) by spectrophotometry at 260/280 nm. Purity was assessed by an absence of 320 nm. RNA samples were reverse transcribed using the M-MuLV RT reagent Kit (New England BioLabs, MA, USA). Relative mRNA levels were determined by real-time PCR using a SYBR® PowerUp master mix and a real-time PCR detection system (Mastercycler Realplex ep gradient, Eppendorf, Hamburg, Germany). Data were expressed in Ct values normalized to 18S and […] between control (2 kPa) and treated groups (8, 15, 25 kPa) was determined using the 2-ΔΔCt method. The telomerase-associated genes were probed using the TaqManTM Array Human Telomere Extension by Telomerase (Applied Biosystems #4414187) with multiple plates. Briefly, samples were loaded with SYBR® PowerUp master mix and a real-time PCR detection system (Mastercycler Realplex ep gradient, Eppendorf, Hamburg, Germany). Data were expressed in Ct values normalized to endogenous controls provided with the array and […] and older change between groups was determined using the 2-ΔΔCt method.

The next assay deals with caspases 3, 5, and 6. As to the kind of experiment: Non-canonical caspase activity (with Ac-YVAD-CHO) in microglia. The format is cell-based, human. The conditions noted are these: NAC pre-treatment. How it is done:
(§1) Caspase-1 and Non-canonical Inflammasome Activity Assays: Detection of caspase-1 and non-canonical caspases using a luciferase assay was performed using Caspase-Glo™ Inflammasome Assay (Cat #G9951; Promega, Madison WI, USA) according to the manufacturer's instructions. Briefly, microglial cells were grown in 12-well plates on differing stiffness for 11 days and then plated with a selective caspase-1 substate, Z-WEHD, for catalytically active caspase-1 with or without a caspase-1 specific inhibitor, Ac-YVAD-CHO, to confirm specific activity in parallel samples. The Ac-YVAD-CHO has minimal effect on other cross-reacting caspases 3, 5, and 6, thereby, representing non-canonical inflammatory caspase activity. Total luminescence was measured using a Synergy™ 2 multi-mode microplate reader (BioTek, VT, USA). NAC administration in microglial cells: NAC was purchased (Sigma-Aldrich, St. Louis, MO, USA) and was used in treatment after seeding microglial cells for 3 hours with a 2×PBS wash, then replaced with microglia media every 72 hours. Concentrations of 0.25 and 2.5 mM were used 36. Microglia were grown for 11 days and then assessed using qRT-PCR, counting, and luminescent assays.

Assay [3] deals with HMC3 microglia. As to the kind of experiment: Morphology of HMC3 microglia on BEASTS surfaces after NAC pretreatment. The conditions noted are these: 0.25 mM NAC pretreatment; after 11 days; all stiffnesses. It counts as cell-based, human. Here is the method: To investigate the protective effect of NAC on stiffness-activated microglia, microglial cells were pretreated with 0.25 and 2.5 mM NAC prior to seeding. After 11 days, the morphology was ramified across all treatments with 0.25 mM NAC (FIG. 17A). ROS production was then measured. […] Next, the genotypes of untreated microglia were compared with NAC-treated microglia and an attenuation was found in each transcript. […] Additionally the MI profile correspondingly attenuated and mechanosensors; however, the M2 marker PPARG increased. To investigate the influence of NAC on caspase-1 stiffness-driven inflammation, the activity of caspase-1 was measured. The activity was reduced in 2 and 8 kPa; however, 25 kPa had increased caspase-1 activity, corroborating the findings with the loss of the CX3CR1 transcript (FIGS. 17E and 17F). […] Together, these findings indicate that pre-treatment of NAC attenuates ROS-driven dysfunction in stiffness-activated microglia. […] BV2 mouse microglia and HMC3 human cells: All cells were grown in aseptic conditions following standard cell culture protocol and stored in an incubator set at 37° C. with 5% CO2. […] Microglia were grown for 11 days and then assessed using qRT-PCR, counting, and luminescent assays.

For assay [4], the system named is HMC3 microglia. As to the kind of experiment: Total intracellular ROS (H2DCFDA dye) in microglia on stiffness after NAC pretreatment. The conditions noted are these: NAC-pre-treated microglia; 11 days on stiffness (2, 8, 25 kPa). It counts as cell-based, human. Here is the method:
ROS Quantification and Imaging: 5-(and6)-Chloromethyl-2′,7′-dichlorodihydro-fluorescein diacetate (CM-H2DCFDA) is a fluorescent indicator activated by the presence of ROS. The intensity of CM-H2DCFDA was measured by calculating the corrected total cell fluorescence (CTCF) from The Open Lab Book Imaging protocols. Microglial cells were plated onto 12-well plates at a density of 75,000 cells/mL. Microglial cells were grown to confluency and then 10 μM DCF-DA (Invitrogen) was added to all wells, and cells were incubated for a further 30 minutes before analysis of ROS-activated DCF-DA fluorescence (FL-1/525 nm).
(§2) NAC administration in microglial cells: NAC was purchased (Sigma-Aldrich, St. Louis, MO, USA) and was used in treatment after seeding microglial cells for 3 hours with a 2×PBS wash, then replaced with microglia media every 72 hours. Concentrations of 0.25 and 2.5 mM were used 36. Microglia were grown for 11 days and then assessed using qRT-PCR, counting, and luminescent assays.

In the next assay the target is T1, caspase-1 (Homo sapiens, UniProt P29466).
T1 construct: endogenous in cells; host or cells: microglial cells (HMC3 inferred)
T1 sequence (P29466 120-297 limits assumed): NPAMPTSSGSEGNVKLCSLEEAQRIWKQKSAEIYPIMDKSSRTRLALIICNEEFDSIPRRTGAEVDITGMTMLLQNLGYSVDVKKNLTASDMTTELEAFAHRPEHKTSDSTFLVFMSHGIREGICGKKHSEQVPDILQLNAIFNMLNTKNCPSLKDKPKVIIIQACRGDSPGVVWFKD
T1 sequence (P29466 317-404 limits assumed): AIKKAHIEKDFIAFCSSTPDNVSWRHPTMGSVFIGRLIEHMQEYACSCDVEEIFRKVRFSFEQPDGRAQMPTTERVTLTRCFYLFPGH
As to the kind of experiment: Intracellular caspase-1 activity, bioluminescent assay of microglia. The format is cell-based. The conditions noted are these: NAC pretreatment. Here is the method: as §1, with “USA).” for “USA). NAC administration in microglial cells: NAC was purchased (Sigma-Aldrich, St. Louis, MO, USA) and was used in treatment after seeding microglial cells for 3 hours with a 2×PBS wash, then replaced with microglia media every 72 hours. Concentrations of 0.25 and 2.5 mM were used 36. Microglia were grown for 11 days and then assessed using qRT-PCR, counting, and luminescent assays.”
as §2

For assay [5], the system named is Nrf2-related genes in HTR8 cells. The conditions noted are these: sulforaphane treatment. Here is the method:
Sulforaphane (SFN) is a naturally occurring compound present in cruciferous vegetables like broccoli, watercress, Brussels sprouts, cabbage, and cauliflower. […] As a potent Nrf2 activator, SFN affects the expression of approximately 200 genes, including those involved in antioxidant and anti-inflammatory processes. To explore the impact of sulforaphane treatment on the expression levels of Nrf2-related genes, HTR8 cells were cultured on 8 kPa, 25 kPa, and 55 kPa BEASTS surfaces and the gene expression was analyzed by RT-PCR.
Gene Expression analysis of the HTR8 cells: Cells were cultured on BEASTS substrates of different stiffness levels (8 kPa, 25 kPa, and 55 kPa) for four days. After the culture, the total RNA was isolated from the HTR8 cells using Trizol following the manufacturer's instructions. RNA was extracted from the aqueous phase of the cell lysates by adding chloroform, followed by
RNA precipitation using isopropyl alcohol and rinsed with 75% ethanol. The RNA pellet was quantified and quality-checked using a spectrophotometer and then reverse-transcribed using the iScript™ cDNA synthesis kit. Subsequently, the relative expression levels of the target genes were analyzed using quantitative real-time PCR with SYBR Green Master Mix, and GAPDH was used as the housekeeping gene. The […] was employed for data analysis.

The mark [6] stands for this setting: HTR8 cells, all three stiffness levels (8, 25, 55 kPa).

Structures are written as SMILES. Entries after “also recorded” stand apart in the source; their conditions may differ.

For `CC(=O)N[C@@H](CS)C(=O)O` [NAC, N-Acetyl-l-Cysteine], the “stiffness-induced microglial proliferation / growth” value with HMC3 microglia [1] is listed as “mitigates; also recorded: slows”. In the assay on HMC3 microglia [2] (0.25 mM NAC pretreatment, RT-qPCR, 2, 8, 25 kPa), the “transcripts of NAC-treated versus untreated microglia” value is “attenuation”. In addition, the “inflammatory phenotype of microglia” value with HMC3 microglia [2] (NAC pretreatment, HMC3 cell line on stiffness) was “ameliorates”. In addition, in the assay with HMC3 microglia [2] (NAC pretreatment, qRT-PCR), the PTGS2 expression result is “decrease” and the YAP1 expression entry is “decrease”. Also, in the assay with HMC3 microglia [2] (NAC-treated microglia), the “M1 inflammatory profile (printed MI profile)” value is given as “attenuated” and the “PPARG (M2 marker) expression” value is “increased”. Besides, in the assay with HMC3 microglia [2] (NAC-treated microglia, 25 kPa), the “CX3CR1 (steady-state marker) expression” value is “decreased substantially”. The “activity of non-canonical caspases” value with caspases 3, 5, and 6 (2 and 8 kPa) was “reduced”. The “activity of non-canonical caspases” value in the assay with caspases 3, 5, and 6 (elevated activity at 25 kPa) is “attenuated”. The microglial morphology result with HMC3 microglia [3] is on record as “ramified”. Besides, in the assay with HMC3 microglia [4], the ROS production result is recorded as “mitigates; also recorded: significantly reduced; also recorded: ameliorates”. Besides, the caspase-1 activity entry on caspase-1 (2 and 8 kPa) was “reduced”. Moreover, at caspase-1 (25 kPa), the caspase-1 activity result was “increased”.

As to `C[S+]([O-])CCCCN=C=S` (stereo not shown) [sulforaphane, Sulforaphane], the “expression levels of Nrf2-related genes” value in assay [5] (HTR8 cells on 8 kPa, 25 kPa, and 55 kPa BEASTS surfaces, RT-PCR) was “increase”. Moreover, in assay [5] (HTR8 cells, 8 kPa and 55 kPa), the GCLM gene expression result is recorded as “markedly upregulated”. Moreover, the HMOX1 gene expression entry in assay [5] (HTR8 cells, 55 kPa) was “markedly upregulated”. In addition, in assay [5] (setting [6]), the GSR gene expression entry is reported as “significantly upregulated” and the NQO1 gene expression entry is given as “significantly upregulated”.
